We go through five compounds from BindingDB's records for doi:10.1021/cb9000102 (Pfizer, 2009).

Molecules are shown by their SMILES.

This test has as its target Biotin carboxylase (Escherichia coli (strain K12), UniProt P24182). The test is described as follows: ACCase-Coupled Enzyme Assay. Particulars: pH 8; 23 °C. As to the method: To each well of the plate consisting of 50 mM Hepes (pH 8.0), 100 mM KCl, 1 mM TCEP, 5 mM MgCl2, 0.1 mg/mL BSA, 0.005% (vol/vol) Tween 20, 30 nM E. coli BC, 50 nM E. coli CT, 50 nM biotinylated E. coli BCCP, and 0.5 unit/mL E. coli purine nucleoside phosphorylase was added. […] Reaction progress was monitored by the increase in absorbance at 360 nm. […] Inhibition data were fit to the standard IC50 equation.
As usually defined, the IC50 is the concentration that gives 50% inhibition. The low end stands for higher potency, the high end for lower potency. In turn, `CCCCN(Cc1ccccc1)C(=O)c1cnc(N)o1` [amino-oxazole, 2b] displayed a 50% inhibitory concentration (IC50) of 1.29 µM.
Then `Cc1nc(-c2ccnc(N)n2)cs1` [amino pyrimidine, 6], with 59.3 µM; and `Nc1nccc(C(=O)c2ccccc2)n1` [amino pyrimidine, 7], with 8.2 µM.
Then `Cc1ccccc1CN(Cc1ccc2c(c1)OCCO2)C(=O)c1cnc(N)o1` [amino-oxazole, 2d], with 0.007 µM; and `Cc1nc2nc(N)[nH]c2c(O)c1Cc1ccccc1` [amino imidazo-pyridinone, 8], with 2.4 µM.
